Measured values taken from patent US12090137B2, “Solid Δ9-tetrahydrocannabinol (Δ9-THC) compositions” (CANNA-C[…], priority 2020, dated 2024).

Assay: Flowable powder formation by freeze-drying (lyophilization), Example 1
Assay type: physicochemical
Experimental: The powder former (amount based on 1:1, 1:2 or 1:4 molar Δ^9-THC:powder former ratio) was dissolved in H2O (2 mL) and, if needed, dioxane (2 mL) was added to form a solution. The powder former solution was added to the Δ^9-THC solution in the round bottom flask. The round bottom flask was then submerged in a dry ice/acetone bath or liquid nitrogen to freeze the solution while continuously rotating the flask by hand to maximize surface area and form an even, thin layer around the flask. Once frozen, the round bottom flask was attached to a LabConco lyophilizer with an Edwards RV8 vacuum pump pre-equilibrated at ^˜−50° C. Samples were left overnight (18 hrs) and removed the next day.
Δ^9-THC and several powder formers were lyophilized using the described procedure to determine if a flowable powder would result.

CCCCCc1cc(O)c2c(c1)OC(C)(C)[C@@H]1CCC(C)=C[C@@H]21 [Δ^9-THC, (−)-trans-Δ^9-tetrahydrocannabinol]
Result of lyophilizing without a powder former (from dioxane alone): gel | Result of lyophilizing without a powder former (from dioxane/water (~75/25 by volume)): tacky gel
